Like-named read-outs stand apart in the source and are kept apart here.
Columns and labels:
[1] = target: isolated Src (Homo sapiens, UniProt P12931); experiment: titration against isolated Src; type: biochemical; settings: titration data
[2] = tested on: HT29 cell line; experiment: BrdU cell growth inhibition, HT29; type: cell-based, human; settings: for GI50: read-out: GI50
Outline: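 HT29 colon carcinoma cells treated with compounds diluted from 20 mM DMSO stocks into DMEM/10% FBS. Proliferation read as colorimetric BrdU incorporation ELISA; GI calculated relative to untreated cells at time 0 and control cells at day n, with GI50 extrapolated. Net cell loss below time-0 level scored as cytotoxicity.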

[3] = tested on: PDGF receptor tyrosine kinase Y572/574; experiment: PDGF receptor autophosphorylation in cells; type: cell-based; settings: c-Src527F/NIH-3T3 cells
Protocol: (§1) HT29 (colon cancer) and c-Src527F/NIH-3T3 (Src transformed) cell lines were treated with KX2-391 or with AstraZeneca's ATP competitive Src inhibitor AZ28. AZ28 serves as a positive comparator to show what a validated Src inhibitor should do in these assays. After treatment with compound, cells were lysed, subjected to PAGE and probed with a battery of antibodies. […] In addition, off-target protein phosphorylation was also investigated. Further, induction of apoptosis was evaluated via Caspase 3 cleavage. Multiple doses of each compound were tested because the trends in response to increasing drug concentration are the most reliable indicator of activity.
(§2) The same range of multiples of the GI50 for AZ28 in these two cell lines was run as a comparison.
This is thought not to be a direct Src substrate in cells.

[4] = tested on: Shc Y239/240; experiment: intracellular phosphorylation, Shc Y239/240; type: cell-based; settings: whole cells
Protocol: as §1, §2
KX2-391 and AZ28 inhibited Src transphosphorylation.

[5] = tested on: c-Src 3T3 cells; experiment: BrdU cell growth inhibition, c-Src 3T3; type: cell-based, mouse; settings: for GI50: c-Src 3T3 (c-Src527F/NIH3T3) cells, read-out: GI50
Outline: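 c-Src 3T3 cells on poly-D-lysine plates in DMEM with 2% FBS, L-glutamine, pyruvate and 10 mM HEPES. Compounds came from 20 mM DMSO stocks diluted in DMEM/10% FBS. Proliferation was read by colorimetric BrdU-incorporation ELISA, and GI50 was extrapolated from growth relative to time-zero and untreated controls.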

[6] = tested on: MDA231 (Breast); experiment: growth inhibition (BrdU), MDA231; type: cell-based, Human; settings: MDA231 (Breast) cells
Source text: Growth Inhibition. […] T1 values≤T0 values were designated as T, cytotoxicity.

[7] = brain exposure after oral administration; type: in vivo, male CD-1 mice; settings: for AUClast: Brain; for KX2-361 Brain Concentrations, Group A / KX2-361 Brain Concentrations, Group B / KX2-361 Brain Concentrations, Group C: Male CD-1 mice, single PO dose 10 mg/kg (Group 3)
Protocol: Plasma concentrations were measured in mice after oral administration. All doses were formulated in purified water. Four groups of male CD-1 mice were dosed after an overnight fast and fed 4 hours post-dose. Dosing was as follows:
Protein was precipitated with 0.25 mL acetonitrile for plasma, 0.25 mL for brain. After centrifugation, supernatant was directly injected into an LC/MS system. The limit of quantitation was 1 ng/mL using a 50 μL aliquot for plasma and a 50 μL, aliquot for brain. The standard curve was 1 to 1,000 ng/mL for both plasma and brain. HPLC conditions were as follows:
HPLC System: Shimadzu SCL-10 System
• Analytical Column: Aquasil C18 5 μm 100×2 mm column. • Column Temperature: Ambient temperature • Autosampler Temperature: Ambient temperature • Mobile Phase A) 10 mM Ammonium formate in water (pH 4). • B) Acetonitrile. • Flow Rate: 0.6 mL/min • Injection Volume: 2 μL • Gradient:
• Mass Spectrometry Conditions were as follows: • Instrument: ABI Sciex API 4000 • Mode: ESI+ • Experiment: MRM (multiple reaction monitoring) • Transitions: KX2-391: m/z 432.4→114.2 (Rt=3.11 minute) • KX2-361: m/z 406.1→253.2 (Rt=3.33 minute)

[8] = tested on: GL261 glioma cells; experiment: intracranial GL261 glioma survival study; type: in vivo, C57BL/6 mice; settings: for Median survival / survival Range: C57BL/6 mice, intracranial GL261
Protocol: A brain tumor mouse xenograft study was conducted comparing KX2-361 and KX2-391 (KXO1) to Temodar®. The studies were conducted in C57BL/6 mice. GL261 glioma cells (1×10^5 in 5 μl DMEM) were implanted intracranial coordinates: bregma, lateral 2.0 mm, anterior 1.2 mm, 3.0 mm depth dura. Treatment was initiated 3 days post implantation. The groups were as follows (all doses in 100 μl H2O):
The median survival range and the log-rank (Mantel-Cox) statistical test results comparing the survival distributions of the samples.

Chain of isolated Src (P12931 whole entry): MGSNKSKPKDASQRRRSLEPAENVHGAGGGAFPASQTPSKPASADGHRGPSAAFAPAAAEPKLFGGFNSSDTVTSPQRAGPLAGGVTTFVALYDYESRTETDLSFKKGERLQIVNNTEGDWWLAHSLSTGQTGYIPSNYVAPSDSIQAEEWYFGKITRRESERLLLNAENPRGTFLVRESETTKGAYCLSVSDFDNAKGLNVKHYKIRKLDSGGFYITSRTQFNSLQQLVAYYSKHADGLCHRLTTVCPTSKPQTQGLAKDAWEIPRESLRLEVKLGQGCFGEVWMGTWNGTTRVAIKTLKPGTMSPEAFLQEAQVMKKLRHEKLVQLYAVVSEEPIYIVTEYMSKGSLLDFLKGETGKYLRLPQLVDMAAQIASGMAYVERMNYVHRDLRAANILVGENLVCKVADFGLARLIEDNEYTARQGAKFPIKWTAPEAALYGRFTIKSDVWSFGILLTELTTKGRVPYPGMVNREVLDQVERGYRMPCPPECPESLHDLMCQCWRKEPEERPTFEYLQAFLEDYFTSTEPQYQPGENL

Compound: O=C(Cc1ccc(-c2ccc(OCCN3CCOCC3)cc2)cn1)NCc1ccccc1 [KXO1]
- IC50 [1]: 46000 nM
- GI50 ([2]; HT29 (Colon) cells): 25 nM
- PDGF receptor Y572/574 autophosphorylation [3]: not inhibited
- phosphorylation of Shc Y239/240 (Src transphosphorylation) [4]: potent inhibitor
- GI50 [5]: 23 nM
- GI50 [6]: 20 nM

Compound: O=C(Cc1ccc(-c2ccc(N3CCOCC3)cc2)cn1)NCc1cccc(F)c1 [KX2-361]
- AUClast ([7]; single oral dose 10 mg/kg): 656 ng·h/g
- AUClast ([7]; single oral dose 50 mg/kg): 3338 ng·h/g
- KX2-361 Brain Concentrations, Group A ([7]; 0 hr): BLQ (BLQ: Below Limit of Quantitation (1 ng/mL))
- KX2-361 Brain Concentrations, Group B ([7]; 0 hr): BLQ (BLQ: Below Limit of Quantitation (1 ng/mL))
- KX2-361 Brain Concentrations, Group C ([7]; 0 hr): BLQ (BLQ: Below Limit of Quantitation (1 ng/mL))
- KX2-361 Brain Concentrations, Group A ([7]; 0.5 hr): 43.98 ng/g
- KX2-361 Brain Concentrations, Group B ([7]; 0.5 hr): 138.55 ng/g
- KX2-361 Brain Concentrations, Group C ([7]; 0.5 hr): 116.84 ng/g
- KX2-361 Brain Concentrations, Group B ([7]; 1 hr): 334.71 ng/g
- KX2-361 Brain Concentrations, Group C ([7]; 1 hr): 273.32 ng/g
- KX2-361 Brain Concentrations, Group A ([7]; 2 hr): 109.78 ng/g
- KX2-361 Brain Concentrations, Group B ([7]; 2 hr): 78.76 ng/g
- KX2-361 Brain Concentrations, Group C ([7]; 2 hr): 336.07 ng/g
- KX2-361 Brain Concentrations, Group A ([7]; 5 hr): BLQ (BLQ: Below Limit of Quantitation (1 ng/mL))
- KX2-361 Brain Concentrations, Group C ([7]; 5 hr): 47.85 ng/g
- AUClast Brain/AUClast Plasma Ratio ([7]; single oral dose 10 mg/kg): 0.76
- Median survival ([8]; 15 mg/kg bid oral): 30.5
- survival Range ([8]; 15 mg/kg bid oral): 25-34
- Median survival ([8]; 30 mg/kg bid oral): 29
- survival Range ([8]; 30 mg/kg bid oral): 23-32
- survival of mice bearing intracranial GL261 gliomas ([8]; orally at 15 mg/kg/dose bid 7 hours apart): best results
- GI50 ([2]; Homo sapiens, HT-29, HT29 (Colon) cells): 10 nM
- activity at 0.05 µM ([2]; Homo sapiens, HT-29, 50 nM, read-out: HT-29 Growth, % of Control Mean, n = 3): < 0%
- activity at 0.5 µM ([2]; Homo sapiens, HT-29, 500 nM, read-out: HT-29 Growth, % of Control Mean, n = 3): < 0%
- activity at 5 µM ([2]; Homo sapiens, HT-29, 5 uM, read-out: HT-29 Growth, % of Control Mean, n = 3): < 0%
- activity at 0.1 µM ([5]; Mus musculus, NIH3T3, 100 nM, read-out: c-Src 3T3 Growth, % of Control Mean, n = 3): < 0%
- activity at 1 µM ([5]; Mus musculus, NIH3T3, 1.0 uM, read-out: c-Src 3T3 Growth, % of Control Mean, n = 3): < 0%
- activity at 10 µM ([5]; Mus musculus, NIH3T3, 10 uM, read-out: c-Src 3T3 Growth, % of Control Mean, n = 3): < 0%
- GI50 ([5]; Mus musculus): 11 nM

From patent US10196357B2, “Biaryl compositions and methods for modulating a kinase cascade” (Athenex, Inc., priority 2007, dated 2019)
